Data reported in US8741961B2 (Cutech S.r.l., priority 2007, dated 2014).

Columns and labels:
Assay type in all cases: cell-based
[1] = tested on: Human anagen hair follicles; experiment: Growth (elongation) of isolated human hair follicles in organ culture; conditions: for Effect on hair growth compared to other MAOI (in words): comparative experiment, Table 4
Procedure: Human anagen hair follicles were isolated from scalp skin and transferred for cultivation in sterile 24-well plates using a modified Williams' Medium E. Cultivation took place for nine days, while the experimental treatment of the follicles started 24 hours after the beginning of cultivation.
Hair follicles taken from a single donor were selected for the experiments after 18 h of cultivation Only follicles showing a good vital stage and a growth of not less than 0.2 mm were considered suitable to be maintained in culture. 4 groups comprising 9 follicles were prepared, plated at the density of three hair follicles/plate. […] The growth of the hair follicles was studied by microphotography and subsequently determined by image analysis. All hair follicles were photographed every two days.

[2] = tested on: Human anagen hair follicles; experiment: Histological analysis of hair follicles (anagen/catagen phase) after 9 days of cultivation; conditions: for Hair follicles in anagen phase / Hair follicles in catagen phase: after 9 days of cultivation
From the text: Subsequently, the hair follicles were subjected to a histological analysis by colouring with haematossilin and eosin in order to verify the morphological state of the dermopapilla.

[3] = tested on: Human anagen hair follicles; experiment: Number of proliferative (Ki-67) and apoptotic (Apoptag) cells in the dermopapilla of hair follicles; conditions: for Number of cells in apoptotic state ± standard error / Number of cells in proliferative state ± standard error: after three days of cultivation, % of total cells in dermopapilla
Procedure: After three days of cultivation, samples were taken in order to determine the relative number of cells being in the proliferative or apoptotic state. The cells in apoptotic state were determined using an Apoptag Fluorescein In-situ Apoptosis Detection Kit (Chemicon International cod. S7110), while those in the proliferative state were marked with the antibody Ki-67 (monoclonal mouse anti-human Ki-67, clone MIB1, Dako Cytomation cod. M7240). The total number of cells in the dermopapilla was analysed by marking their nuclei by means of DAPI (4′,6-diamidino-2-phenylindol dihydrochloride). The percentage of cells in the proliferative or apoptotic state compared to the total number of cells was determined again by image analysis.

[4] = tested on: Human anagen hair follicles; experiment: Growth (elongation) of isolated human hair follicles in organ culture; conditions: Table 1
[5] = 0.01 mM, day 1 of cultivation, Table 4 comparative experiment
[6] = 0.01 mM, day 3 of cultivation, Table 4 comparative experiment
[7] = 0.01 mM, day 5 of cultivation, Table 4 comparative experiment
[8] = 0.01 mM, day 7 of cultivation, Table 4 comparative experiment
[9] = 0.01 mM, day 9 of cultivation, Table 4 comparative experiment
[10] = 0.1 mM, day 1 of cultivation, Table 4 comparative experiment
[11] = 0.1 mM, day 3 of cultivation, Table 4 comparative experiment
[12] = 0.1 mM, day 5 of cultivation, Table 4 comparative experiment
[13] = 0.1 mM, day 7 of cultivation, Table 4 comparative experiment
[14] = 0.1 mM, day 9 of cultivation, Table 4 comparative experiment

## C#CCN(C)[C@@H](C)Cc1ccccc1 [S-Selegiline]
[1]; [5]
  Growth of hair follicles - elongation ± standard error: 0 mm
[1]; [6]
  Growth of hair follicles - elongation ± standard error: 0.33 ± 0.02 mm
[1]; [7]
  Growth of hair follicles - elongation ± standard error: 0.49 ± 0.02 mm
[1]; [8]
  Growth of hair follicles - elongation ± standard error: 0.69 ± 0.03 mm
[1]; [9]
  Growth of hair follicles - elongation ± standard error: 0.84 ± 0.06 mm
[1]; [10]
  Growth of hair follicles - elongation ± standard error: 0 mm
[1]; [11]
  Growth of hair follicles - elongation ± standard error: 0.35 ± 0.01 mm
[1]; [12]
  Growth of hair follicles - elongation ± standard error: 0.55 ± 0.02 mm
[1]; [13]
  Growth of hair follicles - elongation ± standard error: 0.70 ± 0.03 mm
[1]; [14]
  Growth of hair follicles - elongation ± standard error: 0.75 ± 0.06 mm

## Pargyline
[2]; 0.01 mM
  Hair follicles in anagen phase: 78%
  Hair follicles in catagen phase: 22%
[2]; 0.1 mM
  Hair follicles in anagen phase: 67%
  Hair follicles in catagen phase: 33%
[2]; 0.5 mM
  Hair follicles in anagen phase: 56%
  Hair follicles in catagen phase: 44%
[2]; 0.01 to 0.5 mM versus control
  Effect on decline in the catagen phase (in words): significantly delayed the decline in the catagen phase
[3]; 0.01 mM
  Number of cells in apoptotic state ± standard error: 0.93% ± 0.37
  Number of cells in proliferative state ± standard error: 1.67% ± 0.4
[3]; 0.1 mM
  Number of cells in apoptotic state ± standard error: 0.95% ± 0.08
  Number of cells in proliferative state ± standard error: 2.89% ± 0.99
[3]; versus control
  Effect on number of apoptotic cells (in words): only a marginal effect in increasing the number of apoptotic cells
  Effect on number of cells in proliferative state (in words): significantly increases the number of cells in an active, proliferative state
[4]; 0.01 mM, day 1 of cultivation
  Growth of hair follicles - elongation ± standard error: 0 mm
[4]; 0.1 mM, day 9 of cultivation
  Growth of hair follicles - elongation ± standard error: 1.60 ± 0.19 mm
[4]; 0.5 mM, day 1 of cultivation
  Growth of hair follicles - elongation ± standard error: 0 mm
[1]; 0.01 mM, day 3 of cultivation, Table 1
  Growth of hair follicles - elongation ± standard error: 0.51 ± 0.03 mm
[1]; 0.01 mM, day 5 of cultivation, Table 1
  Growth of hair follicles - elongation ± standard error: 0.80 ± 0.07 mm
[1]; 0.01 mM, day 9 of cultivation, Table 1
  Growth of hair follicles - elongation ± standard error: 1.47 ± 0.15 mm
[1]; 0.1 mM, day 1 of cultivation, Table 1
  Growth of hair follicles - elongation ± standard error: 0 mm
[1]; [10]
  Growth of hair follicles - elongation ± standard error: 0 mm
[1]; 0.1 mM, day 3 of cultivation, Table 1
  Growth of hair follicles - elongation ± standard error: 0.55 ± 0.04 mm
[1]; [11]
  Growth of hair follicles - elongation ± standard error: 0.56 ± 0.02 mm
[1]; 0.1 mM, day 5 of cultivation, Table 1
  Growth of hair follicles - elongation ± standard error: 0.91 ± 0.12 mm
[1]; [12]
  Growth of hair follicles - elongation ± standard error: 0.78 ± 0.04 mm
[1]; 0.1 mM, day 7 of cultivation, Table 1
  Growth of hair follicles - elongation ± standard error: 1.19 ± 0.17 mm
[1]; [14]
  Growth of hair follicles - elongation ± standard error: 1.22 ± 0.08 mm
[1]; 0.5 mM, day 3 of cultivation, Table 1
  Growth of hair follicles - elongation ± standard error: 0.55 ± 0.05 mm
[1]; 0.5 mM, day 5 of cultivation, Table 1
  Growth of hair follicles - elongation ± standard error: 0.81 ± 0.11 mm
[1]; 0.5 mM, day 9 of cultivation, Table 1
  Growth of hair follicles - elongation ± standard error: 1.17 ± 0.19 mm
[1]; 0.01 to 0.5 mM versus control, Table 1
  Effect on growth of the hair follicles (in words): significant increase in growth of the hair follicles
[1]
  Effect on hair growth compared to other MAOI (in words): the only active species

## C#CCN(C)[C@H](C)Cc1ccccc1 [R-Selegiline]
[1]; [5]
  Growth of hair follicles - elongation ± standard error: 0 mm
[1]; [6]
  Growth of hair follicles - elongation ± standard error: 0.35 ± 0.02 mm
[1]; [7]
  Growth of hair follicles - elongation ± standard error: 0.52 ± 0.03 mm
[1]; [8]
  Growth of hair follicles - elongation ± standard error: 0.62 ± 0.05 mm
[1]; [9]
  Growth of hair follicles - elongation ± standard error: 0.80 ± 0.06 mm
[1]; [10]
  Growth of hair follicles - elongation ± standard error: 0 mm
[1]; [11]
  Growth of hair follicles - elongation ± standard error: 0.34 ± 0.02 mm
[1]; [12]
  Growth of hair follicles - elongation ± standard error: 0.53 ± 0.04 mm
[1]; [13]
  Growth of hair follicles - elongation ± standard error: 0.65 ± 0.06 mm
[1]; [14]
  Growth of hair follicles - elongation ± standard error: 0.82 ± 0.12 mm

## C#CCN(C)CCCOc1ccc(Cl)cc1Cl [Chlorgyline]
[1]; [5]
  Growth of hair follicles - elongation ± standard error: 0 mm
[1]; [6]
  Growth of hair follicles - elongation ± standard error: 0.35 ± 0.02 mm
[1]; [7]
  Growth of hair follicles - elongation ± standard error: 0.49 ± 0.02 mm
[1]; [8]
  Growth of hair follicles - elongation ± standard error: 0.61 ± 0.04 mm
[1]; [9]
  Growth of hair follicles - elongation ± standard error: 0.72 ± 0.07 mm
[1]; [10]
  Growth of hair follicles - elongation ± standard error: 0 mm
[1]; [11]
  Growth of hair follicles - elongation ± standard error: 0.33 ± 0.02 mm
[1]; [12]
  Growth of hair follicles - elongation ± standard error: 0.55 ± 0.04 mm
[1]; [13]
  Growth of hair follicles - elongation ± standard error: 0.67 ± 0.05 mm
[1]; [14]
  Growth of hair follicles - elongation ± standard error: 0.79 ± 0.09 mm
[1]
  Effect on hair growth compared to other MAOI (in words): did not exert any effect on hair growth
